inhibition, IC50 and Selectivity ratio data for 4 compounds are collected here from ChEMBL document CHEMBL3217678 (Medchemcomm, 2011).

Molecules are shown by their SMILES. Calls of active or inactive are those of the source. No cut-off for these calls is given here. Where only a bound is given, the exact number is not on record here.

Test [1] deals with Mycobacterium tuberculosis. Put plainly: Inhibition of Mycobacterium tuberculosis 20S proteasome open-gate mutant using Suc-LLVY-AMC as substrate at 1 mM preincubated for 30 mins followed by substrate addition measured after 90 mins by fluorescence assay.
In test [2] the test system is Mycobacterium tuberculosis. Put plainly: Inhibition of Mycobacterium tuberculosis 20S proteasome open-gate mutant chymotrypsin like activity using Suc-LLVY-AMC as substrate assessed as decrease in enzyme velocity up to 100 uM.
The nature of test [3]: Inhibition of Mycobacterium tuberculosis 20S proteasome open-gate mutant using Suc-LLVY-AMC as substrate preincubated for 30 mins followed by substrate addition measured after 90 mins by fluorescence assay.
Test [4] in a line: Selectivity for Mycobacterium tuberculosis 20S proteasome open-gate mutant over human 20S proteasome.

The IC50 is the concentration that gives 50% inhibition. A high value points to weaker potency in that assay.

`CC(C)C[C@@H](NC(=O)[C@H](Cc1ccccc1)NC(=O)c1cnccn1)c1nsc(=O)o1`: the inhibition result in test [1] and in test [2] was “inactive” each time.

The compound `CC(C)C[C@H](NC(=O)[C@H](Cc1ccccc1)NC(=O)c1cnccn1)B(O)O` [BORTEZOMIB] gave an IC50 in test [3] of 0.0249 µM. That is a double-digit nanomolar value.

Regarding `COc1cccc(-c2nsc(=O)o2)c1`, the Selectivity ratio in test [4] is more than 1000.

Regarding `CC(C)C[C@H](NC(=O)[C@H](Cc1ccccc1)NC(=O)c1cnccn1)c1nsc(=O)o1`, the inhibition result in test [1] and in test [2] was “inactive” each time.
